Measured values: patent publication US20140243419A1, “MUCOSALLY-APPLIED AGENT FOR PREVENTION, AMELIORATION OR TREATMENT OF RETINAL DISEASE” (ROHTO PHARMACEUTICAL CO., LTD., priority 2013, published 2014)

Legend:
[1] = system: NMDA-induced glaucoma rat model; assay: Protective effect against NMDA-induced nerve damage, instillation into the nose and administration to the oral cavity; type: in vivo, Sprague-Dawley (SD) rats; settings: vs no GGA
Description: (§1) In recent years the glutamate analogue NMDA (N-methyl-D-aspartate) has been widely reported to be one of causative agents of neurodegenerative diseases including Alzheimer's disease. In the ophthalmic field, NMDA is considered to be involved in optic nerve damage in glaucoma (Brain Research Bulletin, 81 (2010) 349-358). Accordingly, in this experiment rat models with glaucoma induced by NMDA were used to evaluate the neuroprotective effect of GGA.
To Sprague-Dawley (SD) rats (n=6), 20 μL of 100% (w/v) GGA (all-trans form) was intranasally administered once a day for five days and after each administration the rats were maintained under anesthesia for 30 minutes. On the third day after the start of the administration of GGA, 5 μL of 4 mM NMDA was intravitreously administered to induce nerve damage. […]
Three days after the administration of NMDA, the eyeballs were harvested, fixed in Karnovsky's fixative solution for 24 hours, embedded in paraffin, thin sectioned and stained with hematoxylin-eosin (HE) to prepare histopathological sections. The histological sections were observed under an optical microscope and the thickness (μm) of the inner plexiform layer (IPL) of the retina was measured. Based on the thickness of the inner plexiform layer (IPL) of the retina, the neuroprotective effect of the tested eye drops was evaluated.

[2] = system: human corneal epithelial cells (HCET); assay: Cell permeability (Transwell), HCET; type: in vitro ADME; settings: HCET on Transwell; 0.1% GGA (all-trans:5Z-mono-cis 6:4); 30 minutes or 4 hours; compared with MDCK-I; FIG. 3
Description: (§2) The following test was performed using three types of cells, human corneal epithelial cells (HCET), human nasal septum squamous carcinoma cells (RPMI-2650), and canine renal tubular epithelial cells (MDCK-I), which are often used as an intestinal permeability assay model. The medium used for culture of each type of cells is shown below.
HCET: a liquid medium containing an equal ratio of Dulbecco's modified Eagle's basal medium/Ham's F12 (DMEM/F-12, Invitrogen) supplemented with 0.5% DMSO (Wako Pure Chemical Industries, Ltd.), 10 ng/mL epidermal growth factor (R&D), 5 μg/mL insulin (Invitrogen) and 5% (v/v) fetal calf serum (Daiichi Pure Chemicals)
GGA having a weight ratio of the all-trans form to the 5Z-mono-cis form of 6:4 (Wako Pure Chemical Industries, Ltd.) was used as a test substance. Amounts of 100 mg of GGA and 0.25 mg of α-tocopherol (Wako Pure Chemical Industries, Ltd.) as an antioxidant were weighed and dissolved in 789 mg of 100% ethanol. […]
Each type of cells was seeded onto a Transwell 24-well microplate (CORNING) at 5.0×10, cells per well and cultured under 5% CO2 at 37° C. […] After the culture period, the culture supernatant in the Transwells was recovered and the residual GGA in the supernatant was measured. […]
(§3) The concentration of GGA was measured as follows. […]

[3] = system: human nasal septum squamous carcinoma cells (RPMI-2650); assay: Cell permeability (Transwell), RPMI-2650; type: in vitro ADME; settings: RPMI-2650 on Transwell; 0.1% GGA (all-trans:5Z-mono-cis 6:4); 30 minutes or 4 hours; compared with MDCK-I; FIG. 3
Description: as §2
RPMI-2650: a minimum essential medium (MEM, Invitrogen) supplemented with 10% (v/v) fetal calf serum (Daiichi Pure Chemicals)
GGA having a weight ratio of the all-trans form to the 5Z-mono-cis form of 6:4 (Wako Pure Chemical Industries, Ltd.) was used as a test substance. Amounts of 100 mg of GGA and 0.25 mg of α-tocopherol (Wako Pure Chemical Industries, Ltd.) as an antioxidant were weighed and dissolved in 789 mg of 100% ethanol. The GGA dissolved in ethanol was diluted and dissolved in serum-free medium appropriate for each type of cells to a final concentration of 0.1 w/v %.
Each type of cells was seeded onto a Transwell 24-well microplate (CORNING) at 5.0×10, cells per well and cultured under 5% CO2 at 37° C. To each of the Transwells' lower chambers, 600 μL of the same medium as used for cell culture was added. […] After the culture period, the culture supernatant in the Transwells was recovered and the residual GGA in the supernatant was measured. […]
as §3

[4] = Decomposition of teprenone eye drop by direct sunlight in containers; type: physicochemical; settings: direct sunlight 24 hours; Container C (polyethylene terephthalate); vs aluminum foil covered control
Description: An eye drop containing teprenone was prepared. Specifically, the eye drop was prepared as follows. To surfactants (polysorbate 80 and POE castor oil) warmed to 65° C., teprenone was added and dissolved under stirring in hot water bath at 65° C. for 2 minutes. Water at 65° C. was added, a buffer solution was added, and the mixture was mixed under stirring to give a homogeneous solution. The pH and osmotic pressure were adjusted with hydrochloric acid or sodium hydroxide. The resulting solution was filtered through a membrane filter with a pore size of 0.2 μm (bottle top filter, Thermo Fisher Scientific) to give a clear sterile eye drop.
The eye drop was separately poured, using a glass volumetric pipette, into 10- to 15-mL plastic or glass containers each in an amount of 5 mL (5 g) and the containers were sealed. These eye drops were placed in the upright position on a test-tube stand and left to stand under direct sunlight for 24 hours (test samples). […]
The amount of teprenone contained in the test or control eye drops was measured by HPLC and the amount of decomposition (mg/100 mL) by light irradiation was calculated. The amount of decomposition by light irradiation was calculated as follows: […]

[5] = system: retinal detachment-induced animal; settings: intraperitoneal administration; cited from earlier work
glaucoma rat model = settings: intraperitoneal administration; cited from earlier work
[6] = system: mouse with photoreceptor cell damage caused by light irradiation; settings: oral administration; cited from earlier work
[7] = system: mouse with retinal injury induced by ischemia; settings: oral administration; cited from earlier work
[8] = system: multiple sclerosis mouse model; settings: oral administration; cited from earlier work
[9] = system: NMDA-induced glaucoma rat model; assay: Protective effect against NMDA-induced nerve damage, administration by instillation to the eye; type: in vivo, Sprague-Dawley (SD) rats; settings: Test 2, FIG. 1: 1% memantine solution in PBS instilled twice a day for five days; 5 μL of 4 mM NMDA intravitreously; vs base (PBS)
Text: as §1
To Sprague-Dawley (SD) rats (n=8), an eye drop containing 1% (w/v) GGA (all-trans form) or a control eye drop not containing GGA was pre-administered by instillation to the eye twice a day for five days. On the fifth day after the start of the instillation, 5 μL of 4 mM NMDA was intravitreously administered to induce nerve damage (Test 1). […]
Three days after the administration of NMDA, the eyeballs were harvested, fixed in half Karnovsky's fixative solution for 24 hours, embedded in paraffin, thin sectioned and stained with hematoxylin-eosin (HE) to prepare histopathological sections. The histological sections were observed under an optical microscope and the thickness (μm) of the inner plexiform layer (IPL) of the retina was measured. Based on the thickness of the inner plexiform layer (IPL) of the retina, the neuroprotective effect of the tested eye drops was evaluated.

Row | Compound | neuroprotective effect based on thickness of the inner plexiform layer (IPL) of the retina ([1]; FIG. 2: 20 μL of 100% (w/v) GGA (all-trans form) intranasally once a day for five days) | neuroprotective effect based on thickness of the inner plexiform layer (IPL) of the retina ([1]; FIG. 2: 100 μL of 100% (w/v) GGA (all-trans form) to the oral cavity once a day for five days) | permeability of GGA through cells [2] | permeability of GGA through cells [3] | Amount of decomposition [4] | apoptosis of photoreceptor cells [5] | expression of heat shock protein 70 [5] | expression of heat shock protein 72 (glaucoma rat model) | optic nerve damage (glaucoma rat model) | retinal ganglion cell death (glaucoma rat model) | thioredoxin and heat shock protein 72 in the retinal pigment epithelium [6] | number of surviving retinal neurons [7] | cell loss in the ganglion [8] | number of degenerating axons in the optic nerve [8] | visual function [8] | neuroprotective effect based on thickness of the inner plexiform layer (IPL) of the retina [9]
1 | geranylgeranylacetone [GGA] | apparent neuroprotective effect | apparent neuroprotective effect | higher than that through MDCK-I | higher than that through MDCK-I | significantly inhibited the decomposition of GGA | reduced the apoptosis of photoreceptor cells significantly | induced the expression of heat shock protein 70 | induced the expression of heat shock protein 72 | ameliorated optic nerve damage | reduced retinal ganglion cell death | induced thioredoxin and heat shock protein 72 in the retinal pigment epithelium | significantly increased the number of surviving retinal neurons | prevented cell loss in the ganglion | reduced the number of degenerating axons in the optic nerve | improved the visual function | –
2 | CC12CC3CC(C)(C1)CC(N)(C3)C2 [memantine] | – | – | – | – | – | – | – | – | – | – | – | – | – | – | – | no neuroprotective effect
